Assay results from publication PMC6321117, “Sulfonamide Inhibition Studies of a New β-Carbonic Anhydrase from the Pathogenic Protozoan Entamoeba histolytica” (International Journal of Molecular Sciences, 2018).
pKi: −log10 of the molar value. Read-outs that look alike come from different tables or passages of the source.

Tests used:
[1] = biological target: T1, EhiCA (β-carbonic anhydrase) (Entamoeba histolytica, UniProt C4LXK3); assay: biochemical
T1 sequence (C4LXK3 1-188): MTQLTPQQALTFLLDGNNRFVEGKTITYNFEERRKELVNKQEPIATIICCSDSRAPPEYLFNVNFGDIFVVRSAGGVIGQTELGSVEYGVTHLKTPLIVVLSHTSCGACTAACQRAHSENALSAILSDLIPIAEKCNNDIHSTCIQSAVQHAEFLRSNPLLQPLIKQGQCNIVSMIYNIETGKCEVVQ
Protocol: An Sx.18Mv-R Applied Photophysics (Oxford, UK) stopped-flow instrument has been used to assay the catalytic activity of various CA isozymes for CO2 hydration reaction. […] The uncatalyzed rates were determined in the same manner and subtracted from the total observed rates. Stock solutions of inhibitors (0.1 mM) were prepared in distilled-deionized water, and dilutions up to 1 nM were done thereafter with the assay buffer. Enzyme and inhibitor solutions were pre-incubated together for 15 min before assay, to allow for the formation of the enzyme–inhibitor complex. The inhibition constants were obtained by non-linear least-squares methods using PRISM 3 and the Cheng–Prusoff equation, as reported earlier.

hCA I = settings: human recombinant isozyme, α class, stopped flow CO2 hydrase assay; cited from earlier work

SMILES	pKi [1]	pKi (hCA I)	also measured
Nc1ccc(S(N)(=O)=O)cc1 [Compound 2]	5.22	–	–
NS(=O)(=O)c1cccc(S(N)(=O)=O)c1 [Compound 3]	–	7.10	–
Cc1ccc(S(N)(=O)=O)cc1 [Compound 4]	–	4.11	–
NS(=O)(=O)c1ccc(C(=O)O)cc1 [Compound 18, 4-carboxy-benzenesulfonamide]	6.42	–	–
NS(=O)(=O)c1cc(Cl)c(Cl)c(S(N)(=O)=O)c1 [DCP, dichlorophenamide]	6.10	–	–
O=C1NS(=O)(=O)c2ccccc21 [SAC, saccharin]	–	4.73	–
CC1(C)O[C@@H]2[C@@H](CO[C@@]3(COS(N)(=O)=O)OC(C)(C)O[C@@H]23)O1 [TPM, topiramate]	–	–	pKi ([1]; KI EhiCA, β class, stopped-flow CO2 hydrase assay, 3 different assays, errors 5–10%): 5.51
